Assay results reported in publication PMC12663137 (Nature Communications, 2025).
Where “and” joins values, the source holds several entries; their conditions need not be identical. Identical values can stand only once.

Columns and labels:
[1] = target: T1, SV2A WT and mutants (Homo sapiens, UniProt Q7L0J3, L655A); assay: Modulatory effect of 30 µM UCB1244283 on 3H-UCB-J binding, effect of mutations (Fig. 4D); settings: L655A
T1 construct: expressed in transfected cells; host or cells: HEK293 (ATCC CRL-1573), crude membranes
T1 sequence (Q7L0J3 whole entry L655A): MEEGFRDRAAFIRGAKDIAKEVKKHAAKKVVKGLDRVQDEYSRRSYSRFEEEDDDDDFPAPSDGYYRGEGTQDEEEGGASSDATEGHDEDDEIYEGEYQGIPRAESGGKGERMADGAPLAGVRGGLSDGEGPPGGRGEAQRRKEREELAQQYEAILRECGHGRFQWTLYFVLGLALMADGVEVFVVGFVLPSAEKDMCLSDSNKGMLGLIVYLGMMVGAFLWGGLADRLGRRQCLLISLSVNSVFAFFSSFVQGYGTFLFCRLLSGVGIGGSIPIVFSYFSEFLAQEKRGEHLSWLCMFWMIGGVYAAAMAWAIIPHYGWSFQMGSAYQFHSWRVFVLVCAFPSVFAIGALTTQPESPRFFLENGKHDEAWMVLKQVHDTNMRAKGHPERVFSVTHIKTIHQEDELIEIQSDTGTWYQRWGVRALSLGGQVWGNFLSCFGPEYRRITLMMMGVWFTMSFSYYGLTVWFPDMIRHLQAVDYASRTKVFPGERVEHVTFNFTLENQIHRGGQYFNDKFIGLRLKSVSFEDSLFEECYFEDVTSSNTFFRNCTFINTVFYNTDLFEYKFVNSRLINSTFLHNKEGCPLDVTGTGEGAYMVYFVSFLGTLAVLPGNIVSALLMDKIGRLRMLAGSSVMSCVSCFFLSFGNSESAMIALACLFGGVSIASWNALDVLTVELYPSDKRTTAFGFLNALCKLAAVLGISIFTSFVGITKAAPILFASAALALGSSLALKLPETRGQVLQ
Protocol: (§1) Data are shown as mean ± s.d.; n = 6 biological replicates. […] Data are shown as mean ± s.d.; n = 6 biological replicates. […] Residual binding observed at 70 min was defined as 0%. For WT, data are shown as mean ± s.d. […] For the DMSO group, data are shown as mean ± s.d. (n = 4 biological replicates); for the other groups, data are shown as mean (n = 2). Source data for (A, D, E, F) are provided as a Source data file.
(§2) Ligand binding studies were carried out using crude membranes prepared from HEK293 cells (ATCC, CRL-1573) overexpressing mVenus-SV2AWT or SV2AEM. Membranes were prepared either from transiently transfected cells or from baculovirus-infected cells as described previously. Cells were washed with DPBS (Ca^2+ and Mg^2+ free), followed by resuspending in cold SH buffer (10 mM HEPES-Tris pH 7.4, 320 mM sucrose) containing protease inhibitor cocktail (MedChemExpress) to a density of 10^7 cells/ml. This cell suspension was homogenized by passing through a bead homogenizer (Isobiotec) with 10-micron clearance bead on ice. The lysate was then centrifuged at 4000 × g for 5 min at 4 °C, and the supernatant was aliquoted, frozen in liquid nitrogen, and stored at −80 °C. The mVenus fluorescence estimated using fluorescence size-exclusion chromatography (FSEC) was used to normalize expression levels of mVenus-SV2A mutants studied as detailed previously. For all binding studies, membranes containing […] protein (estimated by BCA method) per reaction were used.
(§3) An equal volume of dimethyl sulfoxide (DMSO) was added to control reactions. Reactions were arrested after 2 h by trapping the membranes on a Unifilter-GF/C 96-well filter plate pre-soaked with 0.1%(w/v) polyethyleneimine. Membranes were washed four times with 0.2 ml of cold binding buffer, dried, and 40 µl of scintillation liquid was added to each well. Radioactivity was monitored in MicroBeta2 plate counter. Residual binding observed in presence of either 10 µM ^1H-UCB-J or 10 µM ^1H-padsevonil was considered as background and subtracted from total binding. Estimates for Kd and Bmax were obtained by fitting the data to one site-specific binding curve using GraphPad Prism 10.

[2] = target: T2, SV2A WT and mutants (Homo sapiens, UniProt Q7L0J3, L655Q); assay: as above; settings: L655Q
T2 construct: expressed in transfected cells; host or cells: HEK293 (ATCC CRL-1573), crude membranes
T2 sequence (Q7L0J3 whole entry L655Q): as the sequence (Q7L0J3 whole entry L655A) above, with A655Q counted along it
Protocol: as §1, §2, §3

[3] = target: T3, SV2A WT and mutants (Homo sapiens, UniProt Q7L0J3, M301A); assay: as above; settings: M301A; 30 µM; enhancement in SV2AWT defined as 100%
T3 construct: expressed in transfected cells; host or cells: HEK293 (ATCC CRL-1573), crude membranes
T3 sequence (Q7L0J3 whole entry M301A): as the sequence (Q7L0J3 whole entry L655A) above, with M301A, A655L counted along it
Protocol: as §1, §2, §3

[4] = tested on: SV2A WT and mutants; assay: as above; design: species or system human; settings: Phe188, Tyr461 or Ser601 mutated to alanine
Protocol: as §1, §2, §3

[5] = target: T4, SV2AEM WT or SV2AEM F188A (Homo sapiens, UniProt Q7L0J3); assay: Dissociation kinetics of 3H-UCB-J (Fig. 4E); assay type: binding; settings: WT
T4 construct: expressed in transfected cells; host or cells: HEK293 (ATCC CRL-1573), crude membranes
T4 sequence (Q7L0J3 141-742 F188A): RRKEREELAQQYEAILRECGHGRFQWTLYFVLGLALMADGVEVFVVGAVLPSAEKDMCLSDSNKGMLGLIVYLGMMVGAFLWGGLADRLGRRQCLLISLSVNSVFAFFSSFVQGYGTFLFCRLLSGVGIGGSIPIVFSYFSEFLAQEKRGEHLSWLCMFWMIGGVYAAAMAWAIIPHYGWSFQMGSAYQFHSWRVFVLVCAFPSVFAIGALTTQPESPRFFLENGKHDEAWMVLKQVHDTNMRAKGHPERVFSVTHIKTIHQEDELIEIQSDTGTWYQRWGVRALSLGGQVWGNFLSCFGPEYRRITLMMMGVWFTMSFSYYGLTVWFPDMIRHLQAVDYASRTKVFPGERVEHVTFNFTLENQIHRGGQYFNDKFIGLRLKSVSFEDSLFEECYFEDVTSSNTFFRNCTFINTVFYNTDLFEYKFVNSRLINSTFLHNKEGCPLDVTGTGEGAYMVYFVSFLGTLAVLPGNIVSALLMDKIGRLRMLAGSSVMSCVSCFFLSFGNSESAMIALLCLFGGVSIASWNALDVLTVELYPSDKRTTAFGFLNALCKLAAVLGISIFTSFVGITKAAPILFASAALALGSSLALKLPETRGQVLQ
Protocol: as §2
(§4) After 2 h of incubation, ligand dissociation was initiated with 0.3 µM ^1H-UCB-J and radioactivity was monitored at indicated time points by trapping equal volume of membranes on PEI-treated Unifilter-GF/C 96-well filter plates. Dissociation half-life (t1/2) estimates were obtained by fitting the data to one-phase exponential decay using GraphPad Prism 10.

[6] = target: T5, SV2AEM WT or SV2AEM F188A (Homo sapiens, UniProt Q7L0J3, F188A); assay: Dissociation kinetics of 3H-UCB-J (Fig. 4E); assay type: binding; settings: F188A
T5 construct: expressed in transfected cells; host or cells: HEK293 (ATCC CRL-1573), crude membranes
T5 sequence (Q7L0J3 141-742 F188A): as above
Protocol: as §2, §4

[7] = target: T6, SV2AEM (Homo sapiens, UniProt Q7L0J3); assay: Association kinetics of 3H-UCB-J after pre-incubation with UCB1244283 (Fig. 4F); assay type: binding
T6 construct: expressed in transfected cells; host or cells: HEK293 (ATCC CRL-1573), crude membranes (transient transfection or baculovirus)
T6 sequence (Q7L0J3 141-742): as the sequence (Q7L0J3 141-742 F188A) above, with A48F counted along it
Protocol: as §2
Residual radioligand binding observed in presence of 10 µM of ^1H-UCB-J was considered as background binding.

[8] = target: T7, SV2A (Homo sapiens, UniProt Q7L0J3); assay: Reduction of 3H-padsevonil (50 nM) binding by UCB1244283 (Fig. 5F); settings: for 3H-Padsevonil binding (%): no UCB1244283 = 100%
T7 construct: expressed in transfected cells; host or cells: HEK293 (ATCC CRL-1573), crude membranes
T7 sequence (Q7L0J3 whole entry): as the sequence (Q7L0J3 whole entry L655A) above, with A655L counted along it
Protocol: Binding observed with SV2AWT was defined as 100%. Data are shown as mean ± s.d.; n = 6 biological replicates. […] Data are shown as mean ± s.d.; n = 6 biological replicates. Significance values were obtained from ordinary one-way ANOVA test (n.s. not significant; **p-value = 0.0064; ****p-value < 0.0001). Source data for (C, F) are provided as a Source data file.
as §2

[9] = tested on: tonic and clonic convulsions; design: method as in Daniels et al., Br J Pharmacol. 2013; settings: UCB1244283 alone; ref Daniels et al., Br J Pharmacol. 2013; cited from earlier work

COc1ccccc1NC(=O)CC(C)Cc1cc(C)cc(C)c1 (centres unmarked) [UCB1244283]
allosteric modulation of 3H-UCB-J binding [1]: did not impair modulation | allosteric modulation of 3H-UCB-J binding [2]: abolished allosteric modulation | UCB1244283 modulation (%) [3]: 204.26% and 178.72% and 164.89% and 193.57% and 161.39% and 224.53% and 226.42% | allosteric potentiation of 3H-UCB-J binding [4]: loss of allosteric potentiation | 3H-UCB-J Binding (%) ([5]; 30 µM UCB1244283, 0 min): 159.90% and 202.86% and 206.18% | 3H-UCB-J Binding (%) ([5]; 30 µM UCB1244283, 4 min): 62.83% and 91.12% and 108.82% | 3H-UCB-J Binding (%) ([5]; 30 µM UCB1244283, 5 min): 85.26% and 105.06% and 94.83% | 3H-UCB-J Binding (%) ([5]; 30 µM UCB1244283, 6 min): 84.91% and 66.93% and 87.39% | 3H-UCB-J Binding (%) ([5]; 30 µM UCB1244283, 7 min): 43.33% and 65.94% and 53.85% | 3H-UCB-J Binding (%) ([5]; 30 µM UCB1244283, 8 min): 39.38% and 72.33% and 39.29% | 3H-UCB-J Binding (%) ([5]; 30 µM UCB1244283, 9 min): 42.32% and 69.81% and 52.93% | 3H-UCB-J Binding (%) ([5]; 30 µM UCB1244283, 10 min): 57.05% and 78.11% and 55.34% | 3H-UCB-J Binding (%) ([5]; 30 µM UCB1244283, 20 min): 16.75% and 27.97% and 21.29% | 3H-UCB-J Binding (%) ([5]; 30 µM UCB1244283, 25 min): 30.01% and 19.16% and 35.10% | 3H-UCB-J Binding (%) ([5]; 30 µM UCB1244283, 50 min): 2.00% and 8.63% and 4.06% | 3H-UCB-J Binding (%) ([5]; 30 µM UCB1244283, 60 min): 0.00% | 3H-UCB-J Binding (%) ([5]; 30 µM UCB1244283, 70 min): 13.54% and 8.21% | 3H-UCB-J Binding (%) ([6]; 30 µM UCB1244283, 0 min): 110.44% and 123.64% | 3H-UCB-J Binding (%) ([6]; 30 µM UCB1244283, 4 min): 30.89% and 37.36% | 3H-UCB-J Binding (%) ([6]; 30 µM UCB1244283, 7 min): 29.68% and 19.59% | 3H-UCB-J Binding (%) ([6]; 30 µM UCB1244283, 8 min): 17.69% and 24.42% | 3H-UCB-J Binding (%) ([6]; 30 µM UCB1244283, 9 min): 11.91% and 16.05% | 3H-UCB-J Binding (%) ([6]; 30 µM UCB1244283, 10 min): 2.24% and 11.65% | 3H-UCB-J Binding (%) ([6]; 30 µM UCB1244283, 15 min): -0.26% and 9.40% | 3H-UCB-J Binding (%) ([6]; 30 µM UCB1244283, 25 min): -3.97% and 3.97% | 3H-UCB-J Binding (%) ([6]; 30 µM UCB1244283, 30 min): -0.60% and 3.19% | 3H-UCB-J Binding (%) ([6]; 30 µM UCB1244283, 40 min): 2.93% and 0.35% | 3H-UCB-J Binding (%) ([6]; 30 µM UCB1244283, 50 min): 6.38% and 7.42% | 3H-UCB-J Binding (%) ([6]; 30 µM UCB1244283, 60 min): 10.53% and 0.69% | 3H-UCB-J Binding (%) ([6]; 30 µM UCB1244283, 70 min): 5.09% and -0.95% | 3H-UCB-J Binding (%) ([7]; pre-incubate 10 μM UCB1244283, 0 min): 0.02% and 0.00168% | 3H-UCB-J Binding (%) ([7]; pre-incubate 10 μM UCB1244283, 0.5 min): 0.16% and 0.14% | 3H-UCB-J Binding (%) ([7]; pre-incubate 10 μM UCB1244283, 1 min): 0.20% and 0.18% | 3H-UCB-J Binding (%) ([7]; pre-incubate 10 μM UCB1244283, 1.5 min): 0.16% and 0.22% | 3H-UCB-J Binding (%) ([7]; pre-incubate 10 μM UCB1244283, 2 min): 0.23% and 0.25% | 3H-UCB-J Binding (%) ([7]; pre-incubate 10 μM UCB1244283, 2.5 min): 0.16% and 0.30% | 3H-UCB-J Binding (%) ([7]; pre-incubate 10 μM UCB1244283, 3 min): 0.29% and 0.33% | 3H-UCB-J Binding (%) ([7]; pre-incubate 10 μM UCB1244283, 3.5 min): 0.30% and 0.35% | 3H-UCB-J Binding (%) ([7]; pre-incubate 10 μM UCB1244283, 4 min): 0.29% and 0.36% | 3H-UCB-J Binding (%) ([7]; pre-incubate 10 μM UCB1244283, 4.5 min): 0.41% and 0.37% | 3H-UCB-J Binding (%) ([7]; pre-incubate 10 μM UCB1244283, 5 min): 0.39% | 3H-UCB-J Binding (%) ([7]; pre-incubate 30 μM UCB1244283, 0 min): 0.00112% and 0.00142% | 3H-UCB-J Binding (%) ([7]; pre-incubate 30 μM UCB1244283, 0.5 min): 0.10% | 3H-UCB-J Binding (%) ([7]; pre-incubate 30 μM UCB1244283, 1 min): 0.11% | 3H-UCB-J Binding (%) ([7]; pre-incubate 30 μM UCB1244283, 1.5 min): 0.13% and 0.12% | 3H-UCB-J Binding (%) ([7]; pre-incubate 30 μM UCB1244283, 2 min): 0.14% | 3H-UCB-J Binding (%) ([7]; pre-incubate 30 μM UCB1244283, 2.5 min): 0.14% and 0.15% | 3H-UCB-J Binding (%) ([7]; pre-incubate 30 μM UCB1244283, 3 min): 0.15% | 3H-UCB-J Binding (%) ([7]; pre-incubate 30 μM UCB1244283, 3.5 min): 0.14% and 0.15% | 3H-UCB-J Binding (%) ([7]; pre-incubate 30 μM UCB1244283, 4 min): 0.16% | 3H-UCB-J Binding (%) ([7]; pre-incubate 30 μM UCB1244283, 4.5 min): 0.22% and 0.16% | 3H-UCB-J Binding (%) ([7]; pre-incubate 30 μM UCB1244283, 5 min): 0.23% and 0.19% | displacement of padsevonil from SV2A [8]: can displace padsevonil from SV2A in a dose-dependent manner | 3H-Padsevonil binding (%) ([8]; UCB1244283 10 μM): 91.0284% and 102.553% and 101.386% and 86.5062% and 91.3202% | 3H-Padsevonil binding (%) ([8]; UCB1244283 30 μM): 87.2356% and 88.6944% and 95.6966% and 92.1955% and 71.6265% and 83.5886% | 3H-Padsevonil binding (%) ([8]; UCB1244283 50 μM): 81.1087% and 81.984% and 86.5062% and 85.6309% and 65.7914% and 73.0853% | 3H-Padsevonil binding (%) ([8]; UCB1244283 100 μM): 69.7301% and 72.0642% and 78.9205% and 76.5864% and 67.5419% | 3H-Padsevonil binding (%) ([8]; UCB1244283 500 μM): 70.4595% and 69.4384% and 72.6477% and 70.0219% and 59.2268% and 71.4807% | effect against convulsions [9]: clear protective effect against tonic and clonic convulsions
